Data on one molecule can be found in EP1389461A1, “Pyrimidones with antiviral properties” (Axxima Pharmaceuticals Aktiengesellschaft, priority 2002, dated 2004).

As usually defined, the IC50 is the concentration that inhibits the measured activity by half.

In the assay the test system is HCMV. Kind of assay: HCMV replication in vitro. Conditions: Human betaherpesvirus 5. It counts as cell-based, human cytomegalovirus (HCMV).

Structures are written as SMILES.

As for `Nc1nc(O)c2ncn(COC(CO)CO)c2n1` [ganciclovir], the IC50 fell in the range of 3 to 4 µM.
